The values that follow come from US20040063721A1, “Agonism of the 5HT2A receptor for treatment of thermoregulatory dysfunction” (Wyeth, priority 2002, published 2004).

One may read the ED50 as the dose at which the effect has come halfway, by size or by number of responders.

The structures appear in SMILES notation. “Also recorded” adds a separate entry of the source.

This assay concerns morphine-dependent rat model of vasomotor instability. In words: Morphine-dependent naloxone-induced flush model (tail skin temperature). In kind it is in vivo. Conditions: for effect on basal tail skin temperature prior to administration of naloxone: ovariectomized morphine-dependent rats, MDL-100907 0.3, 1 mg/kg, DOI 1 mg/kg, FIG. 1.
Where [1] appears, read: Example 3, fluoxetine 10 mg/kg sc 1 h prior and/or WAY-100635 1 mg/kg sc 20 min prior to naloxone, FIG. 3.
[2] abbreviates: Example 2, sc 20 min prior to naloxone, 5HT2c agonist 0.1, 3.0 mg/kg, 5HT2c antagonist 0.1, 1.0 mg/kg, FIG. 2.
The mark [3] stands for this setting: Example 1, sc 20 min prior to naloxone.

Regarding `CNCCC(Oc1ccc(C(F)(F)F)cc1)c1ccccc1` (stereo not shown) [fluoxetine], the “abatement of naloxone-induced flush (changes in TST, Δ°C, mean, over time)” value under setting [1] is listed as “did not significantly abate naloxone-induced flush”. Besides, for the setting “Example 5, fluoxetine 10 mg/kg sc”, the “abatement of naloxone-induced flush by fluoxetine alone” value is listed as “ineffective”. Further, under “Example 5, fluoxetine 30 mg/kg sc”, the “abatement of naloxone-induced hot flush by fluoxetine alone” value is “abates a naloxone-induced hot flush”.
For `COc1ccccc1N1CCN(CCN(C(=O)C2CCCCC2)c2ccccn2)CC1` [WAY-100635, N-[2-[4-(2-Methoxyphenyl)-1-piperazinyl]ethyl]-N-2-pyridinylcyclohexanecarboxamide], the “abatement of naloxone-induced flush (changes in TST, Δ°C, mean, over time)” value under setting [1] was “did not significantly abate naloxone-induced flush”. Also, the ED50 (Rattus norvegicus, 0.25 h, Example 4, WAY-100635 0.01, 0.1 or 1.0 mg/kg sc combined with fluoxetine 10 mg/kg, 15 min post-naloxone, FIG. 4B, read-out: ED50 value, abatement of naloxone-induced flush at maximal flush) is 0.01 ± 0.009 mg/kg.
In the case of `c1cc2c3c(c1)[C@H]1CCC[C@H]1N3CCNC2` [(7bR, 10aR)-1,2,3,4,8,9,10,10a-octahydro-7bH-cyclopenta[b][1,4]diazepino[6,7,1-hi]indole], the “abatement of naloxone-induced flush (changes in TST, Δ°C, mean, over time)” value under setting [2] is “did not significantly abate naloxone-induced flush”.
For `COc1cccc([C@H](O)C2CCN(CCc3ccc(F)cc3)CC2)c1OC` [MDL-100907], the “effect on basal tail skin temperature prior to administration of naloxone” value under setting [3] is listed as “significantly induced an increase in tail skin temperature”. Moreover, the “effect on the combination drug abatement of the naloxone-induced flush at maximal flush” value (Example 5, MDL-100907 0.01 or 0.1 mg/kg 55 min prior to naloxone, then fluoxetine 10 mg/kg + WAY-100635 0.01 mg/kg, 15 min post-naloxone, FIG. 5A) is “dose-dependently reversed”. The “effect on fluoxetine (10 mg/kg) action on naloxone-induced flush at maximal flush” value (Example 5, MDL-100907 0.01 or 0.1 mg/kg 55 min prior to naloxone, then fluoxetine 10 mg/kg, 15 min post-naloxone, FIG. 5B) is given as “potentiated”. Also, the “effect on fluoxetine (30 mg/kg) abatement of naloxone-induced hot flush” value (Example 5, MDL-100907 0.01 or 0.1 mg/kg prior to fluoxetine 30 mg/kg, FIG. 5C) is “potentiated the abatement effect”.
Turning to `Cc1cc2c(cc1Cl)N(C(=O)Nc1ccc(Oc3cccnc3C)nc1)CC2` [6-Chloro-5-methyl-1-[[2-[(2-methyl3-pyridyl)oxy]-5-pyridyl]carbamoyl]indoline], the “abatement of naloxone-induced flush (changes in TST, Δ°C, mean, over time)” value under setting [2] is reported as “did not significantly abate naloxone-induced flush”.
As to `COc1cc(CC(C)N)c(OC)cc1I.Cl` (stereo not shown) [DOI, 1-(2,5-dimethoxy-4-iodophenyl)-2-aminopropane hydrochloride], under “Example 1, DOI 1 mg/kg sc 20 min prior to naloxone, FIG. 1B, hydrochloride”, the “abatement of naloxone-induced flush (change in TST)” value was “preventing a naloxone-induced increase in tail-skin temperature; also recorded: significantly abated the naloxone-induced flush”. Besides, the “effect on basal tail skin temperature prior to administration of naloxone” value under setting [3] was “without affecting basal tail skin temperature”.
